Molecular target: Phosphatidylinositol 3-kinase regulatory subunit alpha [Q431L,Q432E,D433V,Q434L,V435F,V436Q,K437G,E438P]/4,5-bisphosphate 3-kinase catalytic subunit alpha isoform (Homo sapiens, UniProt P42336)
Assay: Biochemical Assay
Source text: PI3KA_Act: Genes encoding for full length p110alpha and p85alpha nSH-iSH2=niSH2 (p85a aminoacids 322-600) subunits of PI3Kalpha complex were subcloned from existing constructs into pFASTBAC Dual vector (Life Technologies, Carlsbad, Calif.) using standard cloning procedures. Gene encoding p110alpha subunit was subcloned into polyhedrine promoter while gene encoding p85alpha niSH2 domains was subcloned into p10 promoter. Additionally, Human Rhinovirus 3C Protease (HRV 3C) site was introduced between nSH2 and iSH2, replacing aminoacids 431-438 of p85alpha with […] HRV 3C recognition sequence, using standard QuickChange mutagenesis protocol (Agilent Technologies, CA). Recombinant baculovirus was generated using Bac-to-Bac protocol (Life Technologies, Carlsbad, Calif.). The biochemical assays of kinase activity of full-length PI3Kalpha (full-length p110alpha/p85a) or truncated PI3Kalpha (p110alpha/iSH2 p85a) were conducted using a fluorescence polarization format similar to the procedure of Yuan J., et al., (2011) "PF-04691502, a Potent and Selective Oral Inhibitor of PI3K and mTOR Kinases with Antitumor Activity, Mol Cancer Ther. 10, 2189-2199.

Compound	Ki [nM]
C[C@]1(N2CCc3c(-c4cnc(N)nc4)nc(N4CCOCC4)nc32)CCN(C(=O)C2(CO)CC2)C1 [US9260439, 339]	0.08
CC(C)(CO)C(=O)N1CC[C@](C)(N2CCc3c(-c4cnc(N)nc4)nc(N4CCOCC4)nc32)C1 [US9260439, 277]	0.034
C[C@]1(N2CCc3c(-c4cnc(N)nc4)nc(N4CCOCC4)nc32)CCN(C(=O)C2(F)CC2)C1 [US9260439, 331]	< 0.018
C[C@]1(N2CCc3c(-c4cnc(N)nc4)nc(N4CCOCC4)nc32)CCN(C(=O)C2(O)CC2)C1 [US9260439, 338]	0.071
CC(=O)NCC(=O)N1CC(N2CCc3c(-c4cnc(N)nc4)nc(N4CCOC[C@@H]4C)nc32)C1 [US9260439, 201]	1.4
